In PubChem BioAssay (NCI):
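Interpolation was linear, between the two tested concentrations surrounding the appropriate level; five concentrations were tested over 48 hours in 96-well plates. Abbreviation: GI50, concentration required for 50% inhibition of growth. TGI is the concentration that stops growth completely.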

What was measured:
Assay in all cases: NCI-60 cell line screen, 48 h
CAKI-1 renal = system: CAKI-1 renal
HCC-2998 colon = system: HCC-2998 colon
MCF7 breast = system: MCF7 breast
OVCAR-4 ovarian = system: OVCAR-4 ovarian
OVCAR-5 ovarian = system: OVCAR-5 ovarian
RXF 393 renal = system: RXF 393 renal
SF-268 CNS = system: SF-268 CNS
SF-295 CNS = system: SF-295 CNS
SK-MEL-5 melanoma = system: SK-MEL-5 melanoma
SR leukemia = system: SR leukemia

| SMILES | TGI (CAKI-1 renal) | TGI (HCC-2998 colon) | TGI (MCF7 breast) | TGI (OVCAR-4 ovarian) | TGI (OVCAR-5 ovarian) | TGI (RXF 393 renal) | TGI (SF-268 CNS) | TGI (SF-295 CNS) | TGI (SK-MEL-5 melanoma) | TGI (SR leukemia) | GI50 (CAKI-1 renal) | GI50 (HCC-2998 colon) | GI50 (OVCAR-4 ovarian) | GI50 (OVCAR-5 ovarian) | GI50 (RXF 393 renal) | GI50 (SF-295 CNS) | GI50 (MCF7 breast) | GI50 (SK-MEL-5 melanoma) | GI50 (SR leukemia) |
| --- | --- | --- | --- | --- | --- | --- | --- | --- | --- | --- | --- | --- | --- | --- | --- | --- | --- | --- | --- |
| N#C/C=C1\C=CC(O)C(O)C1OC1OC(CO)C(O)C(O)C1O (stereo not given) | > 100 µM | > 100 µM | > 100 µM | > 100 µM | > 100 µM | > 100 µM | > 100 µM | > 100 µM | > 100 µM | – | – | – | – | – | – | – | – | – | – |
| O=S(=O)(c1ccc(I)cc1)N(c1ccccc1)S(=O)(=O)C(F)(F)C(F)(F)C(F)(F)C(F)(F)F | 98.2 µM | – | > 100 µM | 68.1 µM | 95.4 µM | 78.6 µM | – | 71.8 µM | – | > 100 µM | – | – | – | – | – | – | – | – | – |
| O=S(=O)(O)c1c(N=Nc2c(O)ccc3ccccc23)ccc2ccccc12 | > 100 µM | – | – | > 100 µM | > 100 µM | > 100 µM | > 100 µM | > 100 µM | > 100 µM | > 100 µM | – | – | – | – | – | – | – | – | – |
| O=C(O)C1CC(c2ccccc2)=NN1c1ccccc1 (stereo not given) | > 100 µM | 57.4 µM | > 100 µM | > 100 µM | > 100 µM | > 100 µM | > 100 µM | > 100 µM | > 100 µM | – | – | – | – | – | – | – | – | – | – |
| COc1cccc(-c2nc3c(C(=O)NCCN(C)C)cccc3[nH]2)c1 | > 96 µM | 30.8 µM | > 100 µM | 84.6 µM | 42.7 µM | 56.7 µM | > 41.7 µM | 47.6 µM | 31.5 µM | – | – | – | – | – | – | – | – | – | – |
| O=C1/C(=C\c2ccc(-c3ccc(Cl)cc3Cl)o2)SC2N=C(COc3ccc(Cl)cc3)NN12 (stereo not given) | > 100 µM | > 100 µM | > 100 µM | > 100 µM | > 100 µM | 88 µM | > 100 µM | > 100 µM | > 100 µM | > 100 µM | – | – | – | – | – | – | – | – | – |
| S=C1N(c2ccc(Cl)cc2)C2=C(N=Nc3ccccc3)C(=Nc3ccccc3S2)N1c1ccccn1 | 26.7 µM | 35.7 µM | 15.2 µM | – | 35.1 µM | – | 19.6 µM | 32.3 µM | 23.4 µM | 29.2 µM | – | – | – | – | – | – | – | – | – |
| [C-]#[O+].[C-]#[O+].[Ir].[O-]c1cccc2cccnc12 | > 100 µM | > 100 µM | – | > 100 µM | > 100 µM | > 100 µM | – | > 100 µM | > 100 µM | > 100 µM | > 100 µM | > 100 µM | > 100 µM | > 100 µM | > 100 µM | > 100 µM | – | – | – |
| O=S(O)c1cc(Cl)cc(Cl)c1O | – | > 100 µM | – | > 100 µM | > 100 µM | > 100 µM | > 100 µM | – | – | – | – | – | – | – | – | – | – | – | – |
| COc1ccc(SC(C)(SC)c2ccccn2)c(OC)n1 (stereo not given) | > 100 µM | > 100 µM | > 100 µM | > 100 µM | > 100 µM | > 100 µM | > 100 µM | > 100 µM | > 100 µM | > 100 µM | – | – | – | – | – | – | – | – | – |
| Oc1cc2cccc[n+]2c2cccc(Cl)c12 | – | – | 36.5 µM | 39.5 µM | – | 74.6 µM | – | – | 34.7 µM | – | – | 52.4 µM | 16.2 µM | – | 26.1 µM | 95.3 µM | 16.7 µM | 19.7 µM | 67.5 µM |
| c1ccc2sc(C3(N4CCCCC4)CCCC3)cc2c1 | 38.4 µM | 13.5 µM | 21.5 µM | 23.7 µM | 24.7 µM | 30.3 µM | 24.3 µM | 23.7 µM | 22.9 µM | 22.3 µM | – | – | – | – | – | – | – | – | – |
